Assay results published in patent publication US11534415B2, “Use of colchicine to inhibit tumor growth and metastases” (Murray and Poole Enterprises, LTD., priority 2018, dated 2022).

What was measured:
[1] = tested on: subjects with a first episode of acute pericarditis; details: at 18 months; aspirin alone or plus colchicine 1.0 to 2.0 mg first day then 0.5 to 1.0 mg/day for 3 months; p=0.004; cited from earlier work
[2] = tested on: subjects with a first episode of recurrent pericarditis; details: actual rates at 18 months; aspirin alone or plus colchicine 1.0-2.0 mg first day then 0.5-1.0 mg/d for 6 months; cited from earlier work
[3] = tested on: commonly used tumor models; assay: Example 5: anti-tumor effects of colchicine in animals (tumor models); assay type: in vivo; details: vs placebo control group
Protocol: A sufficient amount of specimen of a suitable animal species are included in this study utilizing commonly used tumor models. A therapeutically effective amount of colchicine is administered to the test animals. Placebo is administered to a control group. Tumor growth is induced in all animals.

[4] = tested on: commonly used tumor cell lines with or without combination with cultivated PBMCs; assay: Example 6: anti-tumor effects of colchicine in vitro; assay type: cell-based; details: incubation with colchicine and/or cultivation with pretreated PBMCs
Excerpt: A suitable in vitro model for studying the anti-tumor effects of drugs is utilized for this test. Such a test may include commonly used tumor cell lines with or without combination with cultivated PBMCs.

[5] = tested on: subjects with stable coronary disease; details: colchicine 0.5 mg/day in addition to statins and other standard secondary prevention therapies; median of 3 years; cited from earlier work
[6] = tested on: human lipopolysaccharide (LPS) stimulated peripheral blood mononuclear cells (PBMC); details: colchicine added to LPS stimulated PBMC; cited from earlier work
[7] = tested on: co-cultures of PBMC with either HT-29 or RKO human colon cancer cells; details: co-culture with HT-29 or RKO cells; cited from earlier work
[8] = tested on: subjects with cancer or in risk of cancer; assay: Example 4: randomized observer blinded end-point trial of sustained release colchicine added to standard anti-cancer therapies; details: long-term low dose sustained release colchicine 0.5 mg/day vs standard therapy alone
Protocol: To assess the therapeutic effects of a sustained release formulation in subjects with or in subjects with an increased risk of cancer, a prospective randomized observer blinded end-point trial was conducted to determine whether adding 0.5 mg/day of colchicine to standard anti-cancer therapies inhibits, delays, or reduces tumor growth or metastases in a cancer subject.
A sufficient amount of subjects with cancer or in risk of cancer are randomized to long-term low dose sustained release colchicine or to standard therapy alone.

Structure (SMILES) | recurrence rate [1] [%] | recurrence rate [2] [%] | tumor growth [3] | growth of tumor cell lines [4] | prevention of cardiovascular events [5] | IL-1β release [6] | TNF-α release [6] | IL-1β production by cancer cells-stimulated PBMC [7] | release of TNF-α and IL-10 [7] | cancer incidence and mortality [8]
CC(=O)Oc1ccccc1C(=O)O [aspirin] | 32.3 | 50.6 |  |  |  |  |  |  |  | 
COc1cc2c(c(OC)c1OC)-c1ccc(OC)c(=O)cc1[C@@H](NC(C)=O)CC2 [colchicine, (−)-N-[(7S, 12aS)-1,2,3,10-tetramethoxy-9-oxo-5,6,7,9-tetrahydrobenzo[a]heptalen-7-yl]-acetamide] | 10.7 | 24.0 | tumor growth is prevented and/or reduced | inhibits or reduces growth of tumor cell lines | appeared effective for the prevention of cardiovascular events | increased | decreased | promoted cancer cells-stimulated PBMC to produce IL-1β | inhibit the release of tumor necrosis factor (TNF)-α and IL-10 | significantly lower cancer incidence and mortality
